The values below come from article PMC10778976, “BAY-3827 and SBI-0206965: Potent AMPK Inhibitors That Paradoxically Increase Thr172 Phosphorylation” (International Journal of Molecular Sciences, 2023).

By IC50 is commonly meant the concentration that gives 50% inhibition. For orientation: EC50 means the concentration needed to bring the measured effect to its halfway point.

Like-named read-outs stand apart in the source and are kept apart here.

The subject of data set [1] is GBF1 (Thr1337) phosphorylation in U2OS cells. Kind of data set: GBF1 phosphorylation in U2OS cells (Western blot). The note with it: 30 min inhibitor then 30 min MK-8722 (300 nM), read-out: IC50, inhibition of MK-8722-stimulated GBF1 phosphorylation. Format: cell-based, human. Here is the method: (§1) T-Rex U2OS cells carrying a Flp Recombinase Target (FRT) site were generated as described previously and grown in Dulbecco’s Modified Eagle’s Medium (DMEM) supplemented with 10% (v/v) FBS and 1% (v/v) penicillin/streptomycin.
(§2) Cells were lysed rapidly in situ on culture plates using ice-cold lysis medium containing phosphatase inhibitors, as described previously.
(§3) SDS-PAGE was performed using precast NuPAGE Tris-acetate 3–8% gradient polyacrylamide gels in Tris-acetate running buffer when analyzing ACC, GBF1, or Raptor, or NuPAGE Bis-Tris 4–12% gradient polyacrylamide gels in the MOPS buffer system (ThermoFisher Scientific, Waltham, MA, USA) for other proteins (unless stated otherwise). Proteins were transferred to nitrocellulose membranes using the iBlot 2 system (ThermoFisher Scientific). Membranes were enhanced if necessary using SuperSignal Western Blot Enhancer (ThermoFisher Scientific), then blocked for 1 h in Li-Cor Odyssey blocking buffer. The membranes were probed with the appropriate primary antibody ([…]) overnight at 4 °C. Detection was performed using secondary antibody or streptavidin probe (for total ACC) coupled to IR 680 or IR 800 dye, and the membranes were scanned using the LICOR Odyssey IR imager. Protein concentrations were determined by Coomassie Blue binding with bovine serum albumin as a standard. The cellular levels of AMP and ATP were determined via direct perchloric acid extraction from cells, with LC:MS used to estimate the levels of each nucleotide.
For orientation: A western blot detects proteins with antibodies after separation by electrophoresis.

Data set [2] has as its system phosphorylation of Thr172 on AMPK-α in U2OS cells. The data set is described as follows: AMPK Thr172 phosphorylation in U2OS cells (Western blot). The format is cell-based, human. As for the experimental part: as §1, §2, §3
On the set-up of data set [3]: method as in ref 32 = [32]; 32. Lemos C. Schulze A. Overview for BAY-3827, an Inhibitor of PRKAA1, RPS6KA1 Available online: https://www.sgc-ffm.uni-frankfurt.de/chemProbes#!specificprobeoverview/BAY-3827 (accessed on 14 Novembe). The note with it: mouse liver microsomes; cited from earlier work.
For another data set, the system named is U2OS cells. The data set is described as follows: Cellular AMP:ATP ratio via LC:MS in U2OS cells. The format is cell-based, human. As for the experimental part: as §1, §3
Data set [4] deals with acetyl-CoA carboxylase (ACC, Ser80) phosphorylation in U2OS cells. Kind of data set: ACC phosphorylation in U2OS cells (Western blot). Format: cell-based, human. The note with it: 30 min inhibitor then 30 min MK-8722 (300 nM), read-out: IC50, inhibition of MK-8722-stimulated ACC phosphorylation. As for the experimental part:
as §1, §2, §3

In data set [5] the target is T1, human α2β2γ1 complex (Homo sapiens, UniProt O43741+P54619+P54646).
T1 construct: (His)6
The data set is described as follows: Cell-free kinase assay of bacterially expressed human α2β2γ1 complex phosphorylated on Thr172 by CaMKK2. Format: biochemical. The note with it: ATP 200 µM; read-out: IC50, inhibition of human α2β2γ1 complex. From the text: (§4) AMPK assays measured the transfer of radioactivity from labelled ATP to a peptide substrate, which was separated from unreacted ATP by binding to P81 paper. This assay was described previously, except that we used [γ-^33P]ATP rather than [γ-^32P]ATP. The peptide substrate was the AMARA peptide in all experiments other than one, which analyzed allosteric activation by AMP (Figure 2A), when, for technical reasons, the SAMS peptide was used instead. With purified preparations of AMPK, it was assayed in solution, but for assays in cell lysates (Figure 3D and Figure 4D), it was first immunoprecipitated using a mixture of anti-α1 and -α2 antibodies and assayed in resuspended immunoprecipitates. After the initial immunoprecipitation of lysate containing 80 µg of protein, the pellets were washed twice with 1 mL of high salt IP buffer (50 mM Tris-HCL, pH 7.4 at 4 °C, 1 M NaCl, 1 mM EDTA, 1 mM EGTA, 50 mM NaF, 5 mM Na pyrophosphate, 1 mM dithiothreitol, 0.1% (v/v) Triton X-100) and twice with 1 mL of low salt IP buffer (as above but only 150 mM NaCl), followed by a final wash in 1 mL of assay buffer (50 mM Na Hepes, pH7.4, 150 mM NaCl, 1 mM dithiothreitol, 0.02% (v/v) Brij-35). After each wash, the pellet was recovered via centrifugation (16,000× g, 3 min) and then resuspended. […]

Data set [6] addresses T2, isolated kinase domain of the human α2 isoform (residues 1–310) (Homo sapiens, UniProt P54646).
T2 construct: human GST-tagged α2 kinase domain (1–310) was produced as described; GST; made in house
The data set is described as follows: Cell-free kinase assay of isolated α2 kinase domain phosphorylated on Thr172 by CaMKK2. Format: biochemical. The settings on record: for IC50: ATP 200 µM, read-out: IC50, inhibition of human α2 kinase domain. From the text:
AMPK assays measured the transfer of radioactivity from labelled ATP to a peptide substrate, which was separated from unreacted ATP by binding to P81 paper. This assay was described previously, except that we used [γ-^33P]ATP rather than [γ-^32P]ATP. The peptide substrate was the AMARA peptide in all experiments other than one, which analyzed allosteric activation by AMP (Figure 2A), when, for technical reasons, the SAMS peptide was used instead. With purified preparations of AMPK, it was assayed in solution, but for assays in cell lysates (Figure 3D and Figure 4D), it was first immunoprecipitated using a mixture of anti-α1 and -α2 antibodies and assayed in resuspended immunoprecipitates. After the initial immunoprecipitation of lysate containing 80 µg of protein, the pellets were washed twice with 1 mL of high salt IP buffer (50 mM Tris-HCL, pH 7.4 at 4 °C, 1 M NaCl, 1 mM EDTA, 1 mM EGTA, 50 mM NaF, 5 mM Na pyrophosphate, 1 mM dithiothreitol, 0.1% (v/v) Triton X-100) and twice with 1 mL of low salt IP buffer (as above but only 150 mM NaCl), followed by a final wash in 1 mL of assay buffer (50 mM Na Hepes, pH7.4, 150 mM NaCl, 1 mM dithiothreitol, 0.02% (v/v) Brij-35). After each wash, the pellet was recovered via centrifugation (16,000× g, 3 min) and then resuspended. The final resuspended pellets from each biological replicate were divided into two aliquots (40 µg lysate protein) to provide technical replicates and assayed as above.
Bacterially expressed heterotrimers and kinase domain constructs (Figure 1B–D) were activated through Thr172 phosphorylation using ATP and GST-tagged CaMKK2, and CaMKK2 was removed via passage through glutathione-Sepharose, as described previously.

The next data set relates to T3, PPM1A.
T3 construct: made in house
The data set is described as follows: PPM1A activity using p-nitrophenyl phosphate. Format: biochemical. The note with it: p-nitrophenyl phosphate substrate, concentrations as in Figure 5A. Here is the method: To directly determine LKB1 activity, kinase assays were performed in the presence or absence of the indicated concentration of BAY-3827 or SBI-0206965 as for AMPK, except that LKBtide was used as a peptide substrate. PPM1A activity was determined using p-nitrophenyl phosphate (pNPP) as a substrate. PPM1A (5 µg) was incubated with 50 mM pNPP and 50 mM MgCl2 in Hepes buffer in the presence of a vehicle or the indicated concentration of BAY-3827 or SBI-0206965 for 10 min at 30 °C. The reaction was quenched by the addition of 1 mL of 0.5 M EDTA and the amount of product, p-nitrophenol, determined by measuring absorbance at 405 nm.

Data set [7] concerns Raptor (Ser792) phosphorylation in U2OS cells. The data set is described as follows: Raptor phosphorylation in U2OS cells (Western blot). Format: cell-based, human. The settings on record: 30 min inhibitor then 30 min MK-8722 (300 nM), read-out: IC50, inhibition of MK-8722-stimulated Raptor phosphorylation. Here is the method: as §1, §2, §3
Details of data set [8]: method as in PMID 35802287. The note with it: cited from earlier work.
Data set [9] addresses T4, human α2β2γ1 complex (Homo sapiens, UniProt P54646).
T4 construct: (His)6
The data set is described as follows: Cell-free kinase assay of bacterially expressed human α2β2γ1 complex phosphorylated on Thr172 by CaMKK2. Format: biochemical. The note with it: ATP 200 µM; read-out: IC50, inhibition of human α2β2γ1 complex.
Excerpt: as §4

T2 sequence (P54646 1-310): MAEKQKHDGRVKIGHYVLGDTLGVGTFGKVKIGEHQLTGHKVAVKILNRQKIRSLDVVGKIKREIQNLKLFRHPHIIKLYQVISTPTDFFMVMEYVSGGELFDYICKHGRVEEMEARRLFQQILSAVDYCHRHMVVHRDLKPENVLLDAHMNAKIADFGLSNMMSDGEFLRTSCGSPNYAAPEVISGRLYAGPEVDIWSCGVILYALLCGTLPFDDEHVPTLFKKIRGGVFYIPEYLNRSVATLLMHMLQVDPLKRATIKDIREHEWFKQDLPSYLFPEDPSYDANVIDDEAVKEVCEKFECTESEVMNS
T1 sequence (P54646 whole entry): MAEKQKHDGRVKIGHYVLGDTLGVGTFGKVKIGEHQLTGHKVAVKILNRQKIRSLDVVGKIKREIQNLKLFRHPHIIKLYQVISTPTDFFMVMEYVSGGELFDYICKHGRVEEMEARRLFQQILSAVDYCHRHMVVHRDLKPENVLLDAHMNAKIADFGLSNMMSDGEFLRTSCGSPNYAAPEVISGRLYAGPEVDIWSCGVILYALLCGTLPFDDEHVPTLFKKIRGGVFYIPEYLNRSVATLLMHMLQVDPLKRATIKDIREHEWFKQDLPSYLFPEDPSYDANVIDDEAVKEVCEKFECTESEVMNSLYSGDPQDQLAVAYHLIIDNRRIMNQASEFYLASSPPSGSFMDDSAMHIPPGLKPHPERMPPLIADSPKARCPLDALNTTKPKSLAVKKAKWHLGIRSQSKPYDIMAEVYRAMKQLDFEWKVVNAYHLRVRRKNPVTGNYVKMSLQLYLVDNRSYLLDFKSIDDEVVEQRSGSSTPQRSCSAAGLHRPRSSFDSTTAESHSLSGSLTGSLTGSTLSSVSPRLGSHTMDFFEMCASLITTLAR
T1 sequence (O43741 whole entry partner): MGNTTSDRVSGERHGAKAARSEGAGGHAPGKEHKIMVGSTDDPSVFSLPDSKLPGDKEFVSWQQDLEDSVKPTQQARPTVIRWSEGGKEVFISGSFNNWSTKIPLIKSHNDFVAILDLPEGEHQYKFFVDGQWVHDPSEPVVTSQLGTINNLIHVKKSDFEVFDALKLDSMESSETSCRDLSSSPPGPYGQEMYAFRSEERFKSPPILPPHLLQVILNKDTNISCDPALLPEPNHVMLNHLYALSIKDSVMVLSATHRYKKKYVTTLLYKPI
T1 sequence (P54619 whole entry partner): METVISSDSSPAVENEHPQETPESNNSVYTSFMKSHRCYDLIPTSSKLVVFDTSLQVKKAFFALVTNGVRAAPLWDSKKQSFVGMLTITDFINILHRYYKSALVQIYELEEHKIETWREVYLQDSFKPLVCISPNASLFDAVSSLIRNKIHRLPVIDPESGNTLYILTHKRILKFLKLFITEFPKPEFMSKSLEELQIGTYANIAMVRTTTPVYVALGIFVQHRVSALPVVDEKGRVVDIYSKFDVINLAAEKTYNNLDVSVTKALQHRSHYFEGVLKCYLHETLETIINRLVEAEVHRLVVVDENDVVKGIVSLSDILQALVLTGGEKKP
T4 sequence (P54646 whole entry): as the sequence (P54646 whole entry) above
T4 sequence (O43741 whole entry partner): as the sequence (O43741 whole entry partner) above
T4 sequence (P54619 whole entry partner): as the sequence (P54619 whole entry partner) above

For the compound `CCc1ccccc1C(=O)Nc1n[nH]c2c(C)c(F)c(C3C(C#N)=C(C)N(C)C(C)=C3C#N)cc12` [BAY-3827], the IC50 in data set [1] (Homo sapiens, 0.5 h) came to 55 nM; in data set [4] it was 270 nM; in data set [4] (Homo sapiens, U2OS, 0.5 h), 260 nM; on human α2β2γ1 complex [5], 70 nM; in [6], 89 nM; in data set [7] (Homo sapiens, 0.5 h), 113 nM. Moreover, the EC50 in data set [2] (Homo sapiens, read-out: EC50, half-maximal increase of Thr172 phosphorylation) is 164 nM. Moreover, the “maximum increase of Thr172 phosphorylation” value in data set [2] (pThr172:total AMPK relative to control) amounted to 9.7 fold. For the same compound, the “in vitro clearance (CL)” value in [3] is 83 mL/min/kg. Besides, the “oral bio-availability (Fmax)” value in [3] is 7%. In the data set on U2OS cells (all concentrations used), the “effect on cellular AMP:ATP ratios” value was “did not cause any change”. Also, the “Apparent Vmax” value in data set [6] (BAY-3827 10 nM) turned out to be 2.09 µmol/min/mg; in [6] (BAY-3827 30 nM) it was 1.78 µmol/min/mg; in data set [6] (BAY-3827 100 nM), 1.69 µmol/min/mg; in [6] (BAY-3827 300 nM), 1.27 µmol/min/mg. Moreover, in the data set on PPM1A, the “effect on activity of PPM1A” value is listed as “Lack of effect”.
Consider `CNC(=O)c1ccccc1Oc1nc(Nc2cc(OC)c(OC)c(OC)c2)ncc1Br` [SBI-0206965], for which the IC50 in [1] worked out at 12000 nM; in data set [4], 42000 nM; at human α2β2γ1 complex [9], 206 nM; in data set [6] it was 545 nM; in [7], 9200 nM. The “increase of Thr172 phosphorylation, maximal effect at low concentrations” value in data set [2] (3–30 µM) is “about 2 fold”. Moreover, the “increase of Thr172 phosphorylation at high concentrations” value in data set [2] (100–300 µM, not saturated) is recorded as 4 fold. Moreover, the “increase in cellular AMP:ATP ratio” value in the data set with U2OS cells (300 µM, 1 h incubation) was more than 30 fold. Also, the elimination half-life result in data set [8] was “short”. In addition, in data set [8], the relative oral availability result is given as “low”. In addition, in the data set with PPM1A, the “effect on activity of PPM1A” value is “Lack of effect”.
